The values below come from patent publication US10167276B2, “Compounds and methods for inhibiting JAK” (Dizal (Jiangsu) Pharmaceutical Co., Ltd., priority 2015, dated 2019).

For the assay, the system named is STAT3 phosphorylation in NCI-H1975 cells. In words: Cellular pSTAT3 assay in NCI-H1975 cells. The class given is cell-based. As to conditions: Homo sapiens, 2 hours with compound. The method, then: NCI-H1975 cells were plated onto Costar #3701 96 or 384 well tissue-culture treated plates at 5,000 cells/well in 30 uL medium (RPMI, 10% FBS, supplemented with L-glutamine) and incubated overnight at 37° C. in 5% CO2. Phospho STAT3 signal was quantitated utilizing Cell Signaling Technology #7146B Pathscan […] STAT3 antibody pair kit, following manufacturer's instructions.
Cells were dosed with compound and incubated at 37° C. in 5% CO2 for 2 hours, after which medium and compound were aspirated and cells lysed with 35 uL cold 1×Cell Signaling Lysis buffer and chilled at 4° C. for 1-2 hours. Lysate was incubated on STAT3 capture plates at 4° C. overnight, washed 3× with Tris-Buffered Saline with 0.05% Tween® 20 (TBST), then […] STAT3 detection antibody was applied for 2 hours. Following washing with TBST (3×), HRP-secondary antibody was applied for 2 hours. After additional washing, signal was detected using TMB and Stop solution and read at 450 nm using Tecan Infinite M100.

Broadly, the IC50 is the concentration that gives 50% inhibition. Turning to `CCOc1nn(C)cc1Nc1ncc(F)c(-c2c[nH]c3c(NC(=O)[C@H](C)N4CCN(C)C[C@@H]4C)cccc23)n1` [Example 10b, (2S)-2-[(2S)-2,4-dimethylpiperazin-1-yl]-N-(3-{2-[(3-ethoxy-1-methyl-1H-pyrazol-4-yl)amino]-5-fluoropyrimidin-4-yl}-1H-indol-7-yl)propanamide], the IC50 was > 3000 nM.

Take `CCN1CCN([C@H](C)C(=O)Nc2cccc3c(-c4nc(Nc5cn(C)nc5OC)ncc4F)c[nH]c23)CC1` [Example 4, (2R)-2-(4-ethylpiperazin-1-yl)-N-(3-{5-fluoro-2-[(3-methoxy-1-methyl-1H-pyrazol-4-yl)amino]pyrimidin-4-yl}-1H-indol-7-yl)propanamide]: the IC50 amounted to 98.6 nM.

Turning to `CC[C@@H](C(=O)Nc1cccc2c(-c3nc(Nc4cn(C)nc4C)ncc3F)c[nH]c12)N1CCN(C)CC1` [Example 50, (2S)-N-{3-[2-[(1,3-dimethyl-1H-pyrazol-4-yl)amino]-5-fluoropyrimidin-4-yl}-1H-indol-7-yl)-2-(4-methylpiperazin-1-yl)butanamide], the IC50 was found to be 999 nM.

Regarding `COc1nn(C)cc1Nc1ncc(C)c(-c2c[nH]c3c(NC(=O)[C@@H](C)N4CCN(C)[C@H](C)C4)cccc23)n1` [Example 18, (2R)-2-[(3R)-3,4-dimethylpiperazin-1-yl]-N-(3-{2-[(3-methoxy-1-methyl-1H-pyrazol-4-yl)amino]-5-methylpyrimidin-4-yl}-1H-indol-7-yl)propanamide], the IC50 is 175 nM. Then `COC[C@H](C(=O)Nc1cccc2c(-c3ccnc(Nc4cn(C)nc4OC)n3)c[nH]c12)N1CCN(C)CC1` [Example 60, (2R)-3-Methoxy-N-(3-{2-[(3-methoxy-1-methyl-1H-pyrazol-4-yl)amino]pyrimidin-4-yl}-1H-indol-7-yl)-2-(4-methylpiperazin-1-yl)propanamide], with 97.3 nM. The result for `CCc1nn(C)cc1Nc1ncc(C)c(-c2c[nH]c3c(NC(=O)[C@@H](C)N4CCN(C)CC4)cccc23)n1` [Example 55, (2R)-N-(3-{2-[(3-ethyl-1-methyl-1H-pyrazol-4-yl)amino]-5-methylpyrimidin-4-yl}-1H-indol-7-yl)-2-(4-methylpiperazin-1-yl)propanamide] reads 116 nM; that for `Cc1nn(C)cc1Nc1nccc(-c2c[nH]c3c(NC(=O)[C@@H](C)N4CCN(C)CC4)cccc23)n1` [Example 57, (2R)-N-(3-{2-[(1,3-dimethyl-1H-pyrazol-4-yl)amino]pyrimidin-4-yl}-1H-indol-7-yl)-2-(4-methylpiperaizn-1-yl)propanamide], 155 nM. Then `CCOc1nn(C)cc1Nc1ncc(C)c(-c2c[nH]c3c(NC(=O)[C@@H](C)N4CCN(C)CC4)cccc23)n1` [Example 35, (2R)-N-(3-{2-[(3-ethoxy-1-methyl-1H-pyrazol-4-yl)amino]-5-methylpyrimidin-4-yl}-1H-indol-7-yl)-2-(4-methylpiperazin-1-yl)propanamide], with 153 nM; and `COC[C@@H](C(=O)Nc1cccc2c(-c3ccnc(Nc4cn(C)nc4OC)n3)c[nH]c12)N1CCN(C)CC1` [Example 61, (2S)-3-Methoxy-N-(3-{2-[(3-methoxy-1-methyl-1H-pyrazol-4-yl)amino]pyrimidin-4-yl}-1H-indol-7-yl}-2-(4-methylpiperazin-1-yl)propanamide], with 1270 nM. As for `CCOc1nn(C)cc1Nc1ncc(F)c(-c2c[nH]c3c(NC(=O)[C@@H](C)N4CCN(CC)CC4)cccc23)n1` [Example 8, (2R)-N-(3-{2[(3-ethoxy-1-methyl-1H-pyrazol-4-yl)amino]-5-fluoropyrimidin-4-yl}-1H-indol-7-yl)-2-(4-ethylpiperazin-1-yl)propanamide], the IC50 is 191 nM.

Consider `CCOc1nn(C)cc1Nc1ncc(F)c(-c2c[nH]c3c(NC(=O)[C@H](C)N4CCN(C)[C@@H](C)C4)cccc23)n1` [Example 11b, (2S)-2-[(3S)-3,4-dimethylpiperazin-1-yl]-N-(3-{2-[(3-ethoxy-1-methyl-1H-pyrazol-4-yl)amino]-5-fluoropyrimidin-4-yl}-1H-indol-7-yl)propanamide], for which the half-inhibitory concentration (IC50) was determined as 2280 nM.

As for `CC[C@@H](C(=O)Nc1cccc2c(-c3nc(Nc4cn(C)nc4OC)ncc3C)c[nH]c12)N1CCN(C)CC1` [Example 43, (2S)-N-(3-{2-[(3-Methoxy-1-methyl-1H-pyrazol-4-yl)amino]-5-methylpyrimidin-4-yl}-1H-indol-7-yl)-2-(4-methylpiperazin-1-yl)butanamide], the IC50 was 176 nM.

Consider `COc1nn(C)cc1Nc1ncc(F)c(-c2c[nH]c3c(NC(=O)[C@@H](C)N4CCN(C)[C@H](C)C4)cccc23)n1` [Example 2, (2R)-2-[(3R)-3,4-dimethylpiperazin-1-yl]-N-(3-{5-fluoro-2-[(3-methoxy-1-methyl-1H-pyrazol-4-yl)amino]pyrimidin-4-yl}-1H-indol-7-yl)propanamide], for which the IC50 is 227 nM. Then `CC[C@H](C(=O)Nc1cccc2c(-c3nc(Nc4cn(C)nc4C)ncc3F)c[nH]c12)N1CCN(C)CC1` [Example 49, (2R)-N-(3-{2-[(1,3-dimethyl-1H-pyrazol-4-yl)amino]-5-fluoropyrimidin-4-yl}-1H-indol-7-yl)-2-(4-methylpiperazin-1-yl)butanamide], with 75.1 nM; and `CC[C@@H](C(=O)Nc1cccc2c(-c3ccnc(Nc4cn(C)nc4OC)n3)c[nH]c12)N1CCN(C)CC1` [Example 48, (2S)-N-(3-{2-[(3-Methoxy-1-methyl-1H-pyrazol-4-yl)amino]pyrimidin-4-yl}-1H-indol-7-yl)-2-(4-methylpiperazin-1-yl)butanamide], with 863 nM; and `COCCN1CCN([C@H](C)C(=O)Nc2cccc3c(-c4ccnc(Nc5cn(C)nc5OC)n4)c[nH]c23)CC1` [Example 27, (2R)-2-[4-(2-methoxyethyl)piperazin-1-yl]-N-(3-{2-[(3-methoxy-1-methyl-1H-pyrazol-4-yl)amino]pyrimidin-4-yl}-1H-indol-7-yl)propanamide], with 609 nM.

As for `CCOc1nn(C)cc1Nc1ncc(C)c(-c2c[nH]c3c(NC(=O)[C@@H](CC)N4CCN(C)CC4)cccc23)n1` [Example 62, (2R)-N-(3-{2-[(3-ethoxy-1-methyl-1H-pyrazol-4-yl)amino]-5-methylpyrimidin-4-yl}-1H-indol-7-yl)-2-(4-methylpiperazin-1-yl)butanamide], the 50% inhibitory concentration (IC50) was 104 nM.

In the case of `CCOc1nn(C)cc1Nc1ncc(F)c(-c2c[nH]c3c(NC(=O)[C@@H](C)N4CCN(C)C[C@H]4C)cccc23)n1` [Example 12, (2R)-2-[(2R)-2,4-dimethylpiperazin-1-yl]-N-(3-{2-[(3-ethoxy-1-methyl-1H-pyrazol-4-yl)amino]-5-fluoropyrimidin-4-yl}-1H-indol-7-yl)propanamide], the IC50 amounted to 246 nM.

As for `CC[C@H](C(=O)Nc1cccc2c(-c3nc(Nc4cn(C)nc4OC)ncc3F)c[nH]c12)N1CCN(C)CC1` [Example 51, (2R)-N-(3-{5-fluoro-2-[(3-methoxy-1-methyl-1H-pyrazol-4-yl)amino]pyrimidin-4-yl}-1H-indol-7-yl)-2-(4-methylpiperazin-1-yl)butanamide], the IC50 is 111 nM. For the molecule `Cc1cnc(Nc2cn(C)nc2C)nc1-c1c[nH]c2c(NC(=O)[C@@H](C)N3CCN(C)CC3)cccc12` [Example 41, (2R)-N-(3-{2-[(1,3-dimethyl-1H-pyrazol-4-yl)amino]-5-methylpyrimidin-4-yl}-1H-indol-7-yl)-2-(4-methylpiperazin-1-yl)propanamide], the IC50 amounted to 92.3 nM. Turning to `COCCN1CCN([C@H](C)C(=O)Nc2cccc3c(-c4nc(Nc5cn(C)nc5OC)ncc4F)c[nH]c23)CC1` [Example 3, (2R)-N-(3-{5-fluoro-[(3-methoxy-1-methyl-1H-pyrazol-4-yl)amino]pyrimidin-4-yl}-1H-indol-7-yl)-2-[4-(2-methoxyethyl)piperazin-1-yl]propanamide], the IC50 was determined as 302 nM. In the case of `COC[C@@H](C(=O)Nc1cccc2c(-c3nc(Nc4cn(C)nc4C)ncc3F)c[nH]c12)N1CCN(C)CC1` [Example 54, (2S)-N-{3-[2-[(1,3-dimethyl-1H-pyrazol-4-yl)amino]-5-fluoropyrimidin-4-yl}-1H-indol-7-yl)-3-methoxy-2-(4-methylpiperazin-1-yl)propanamide], the IC50 is > 3000 nM. Take `COc1nn(C)cc1Nc1ncc(C)c(-c2c[nH]c3c(NC(=O)[C@@H](C)N4CCN(C)CC4)cccc23)n1` [Example 34, (2R)-N-(3-{2-[(3-Methoxy-1-methyl-1H-pyrazol-4-yl)amino]-5-methylpyrimidin-4-yl}-1H-indol-7-yl)-2-(4-methylpiperazin-1-yl)propanamide]: the IC50 was determined as 128 nM. As to `CCOc1nn(C)cc1Nc1ncc(C)c(-c2c[nH]c3c(NC(=O)[C@@H](C)N4CCN(C)C[C@@H]4C)cccc23)n1` [Example 22, (2R)-2-[(2S)-2,4-dimethylpiperazin-1-yl]-N-(3-{2-[(3-ethoxy-1-methyl-1H-pyrazol-4-yl)amino]-5-methylpyrimidin-4-yl}-1H-indol-7-yl)propanamide], the IC50 worked out at 550 nM.

In the case of `CCN1CCN([C@H](C)C(=O)Nc2cccc3c(-c4nc(Nc5cn(C)nc5OC)ncc4C)c[nH]c23)CC1` [Example 16, (2R)-2-(4-ethylpiperazin-1-yl)-N-(3-{2-[(3-methoxy-1-methyl-1H-pyrazol-4-yl)amino]-5-methylpyrimidin-4-yl}-1H-indol-7-yl)propanamide], the IC50 stood at 105 nM. Then `COc1nn(C)cc1Nc1ncc(C)c(-c2c[nH]c3c(NC(=O)[C@@H](C)N4CCN(C)[C@@H](C)C4)cccc23)n1` [Example 14, (2R)-2-[(3S)-3,4-dimethylpiperazin-1-yl]-N-(3-{2-[(3-methoxy-1-methyl-1H-pyrazol-4-yl)amino]-5-methylpyrimidin-4-yl}-1H-indol-7-yl)propanamide], with 70.3 nM.
